Assay [1] relates to c-Myc. Nature of the assay: Western blot analysis of cellular c-Myc levels in MM.1S cells. Format: cell-based, human. The following applies: 6 h; for IC50: Homo sapiens, MM1.S, read-out: IC50 for c-Myc suppression; for c-Myc levels (western blot): MM.1S cells, inhibitor 5 μM.
The target in assay [2] is first bromodomain of BRD4, BRD4(1) (Homo sapiens, UniProt O60885). The experiment in a line: AlphaScreen assay. Format: binding. The following applies: described in words.
The target in another assay is BRD4(1) (Homo sapiens, UniProt O60885). Nature of the assay: Isothermal titration calorimetry. Format: binding. The note with it: ITC, 15 °C, 50 mM HEPES, 150 mM NaCl.
A further assay addresses RSK family kinase. The experiment in a line: Kinome-wide profiling, RSK family. The following applies: read-out: Kds, RSK family; kinome-wide data.
The test system of a further assay is PLK family. The experiment in a line: Kinome-wide profiling, PLK family.
The test system of another assay is MV4-11 AML cells. Nature of the assay: MV4-11 proliferation assay. The note with it: read-out: IC50, proliferation of MV4-11 AML cells. It is filed as cell-based, human.
For assay [3], the system named is c-Myc. Nature of the assay: Western blot of c-Myc levels in Molm14 cell lines. The note with it: FLT3 inhibitor-sensitive and -resistant lines, 6 h. It is filed as cell-based, human. In general terms: In western blotting, separated proteins are transferred to a membrane and probed.
Assay [4] deals with MM.1S multiple myeloma cells. The experiment in a line: MM.1S proliferation assay. The note with it: Homo sapiens, MM1.S, 72 h, read-out: IC50, MM.1S proliferation. It is filed as cell-based.
Assay [5] concerns 12 primary human cell-based BioMAP systems. Nature of the assay: BioMAP primary human cell disease model assay systems.

Where two headings read alike, the source gives them in different places.

Consider `CC[C@@H]1C(=O)N(C)c2cnc(Nc3ccc(C(=O)NC4CCN(C)CC4)cc3OC)nc2N1C1CCCC1` [BI-2536], for which, in the assay with c-Myc [1], the IC50 was roughly 0.1 µM and the “c-Myc levels (western blot)” value is “strong c-Myc down regulation”.
As to `CC(C)CCN1c2nc(Nc3cc(F)c(O)c(F)c3)ncc2N(C)C(=O)C1C` (stereo not shown) [BI-D1870], the “AlphaScreen dose response IC50” value in [2] is on record as “nanomolar”. Further, the Kd on BRD4(1) was 3.5 ± 0.17 µM; on RSK family kinase it was 0.01 to 0.1 µM; on PLK family (read-out: Kds, PLK family, kinome-wide data), roughly 0.01 µM. Also, the “PLK family potencies lower than for BI-2536” value in the assay with PLK family is 10–100 fold.
In the case of `C[C@@H](Oc1cc(-n2cnc3ccc(CN4CCN(C)CC4)cc32)sc1C(N)=O)c1ccccc1C(F)(F)F` [GSK-461364A], the “c-Myc levels (western blot)” value in the assay with c-Myc [1] is “did not affect c-Myc levels”.
With `COc1cc2c(cc1-c1c(C)noc1C)ncc1[nH]c(=O)n([C@H](C)c3ccccn3)c12` [I-BET], the IC50 in the assay with MV4-11 AML cells (72 h) came to 0.2 µM.
`Cc1sc2c(c1C)C(c1ccc(Cl)cc1)=N[C@@H](CC(=O)OC(C)(C)C)c1nnc(C)n1-2` [JQ1]: in the assay on MV4-11 AML cells (72 h), the IC50 amounted to 0.028 µM. In addition, the “c-Myc expression in Molm14 cell lines” value in the assay on c-Myc [3] was “inhibits c-Myc expression with similar potencies”.
At BRD4(1) (error of the fit), `CN(c1ccccc1CNc1nc(Nc2ccc3c(c2)CC(=O)N3)ncc1C(F)(F)F)S(C)(=O)=O` [PF-431396] showed a Kd of 0.445 ± 0.042 µM.
On to `Cc1cnc(Nc2ccc(OCCN3CCCC3)cc2)nc1Nc1cccc(S(=O)(=O)NC(C)(C)C)c1` [TG-101348], for which, in the assay with c-Myc [1], the IC50 was in the range of 1 to 3 µM and the “c-Myc levels (western blot)” value was “strong c-Myc down regulation”. Further, the IC50 in assay [4] lay within 1 to 3 µM. The “production of TNFα, MIG and IL-8” value in [5] is “inhibited”.
On to `N#CC[C@H](C1CCCC1)n1cc(-c2ncnc3[nH]ccc23)cn1` [ruxolitinib], for which, in the assay with c-Myc [1], the “c-Myc levels (western blot)” value is given as “did not affect c-Myc levels”. Besides, the IC50 in the assay on MV4-11 AML cells (Homo sapiens, MV4-11, 72 h) was roughly 10 µM.
Take `C[C@@H]1CCN(C(=O)CC#N)C[C@@H]1N(C)c1ncnc2[nH]ccc12` [tofacitinib]: the “c-Myc levels (western blot)” value in the assay with c-Myc [1] is reported as “did not affect c-Myc levels”.

These data come from PMC3998711 (Nature chemical biology, 2014).
